From ChEMBL document CHEMBL5058564, “EUbOPEN Chemogenomics Library 2 (Incucyte)” (2022) come the findings set out here.

Holding throughout (type): toxicity, cell-based
The test system of data set [1] is HEK-293T. The data set can be described thus: Incucyte cell viability with HEK293T. The conditions noted are these: human, 10 µM, compound concentration 10 uM.
The subject of data set [2] is U2OS. In words: Incucyte cell viability with U2OS. The conditions noted are these: human, 10 µM, compound concentration 10 uM.
Data set [3] has as its system Fibroblast. The data set can be described thus: Incucyte cell viability with human fibroblast. To be noted: 10 µM, compound concentration 10 uM.
Setting [4] is: 0 h, replicate number 1, timepoint 0 hours.
Setting [5] is: 0 h, replicate number 2, timepoint 0 hours.
[6] abbreviates: 6 h, replicate number 1, timepoint 6 hours.
The mark [7] stands for this setting: 6 h, replicate number 2, timepoint 6 hours.
Where [8] appears, read: 12 h, replicate number 1, timepoint 12 hours.
The mark [9] stands for this setting: 12 h, replicate number 2, timepoint 12 hours.
The mark [10] stands for this setting: 18 h, replicate number 1, timepoint 18 hours.
Setting [11] is: 18 h, replicate number 2, timepoint 18 hours.
Where [12] appears, read: 24 h, replicate number 1, timepoint 24 hours.
Where [13] appears, read: 24 h, replicate number 2, timepoint 24 hours.

Where a SMILES comes first, the peptide text is derived from it. [ ]: non-standard residue; d: D form. The star is where a group is joined. dPhe(4-NHCONH2) = NC(=O)Nc1ccc(C[C@@H](N)C(=O)O)cc1; Dihydroorotyl(S) = O=C1C[C@@H](C(=O)*)NC(=O)N1; dPhe(4-Cl) = N[C@H](Cc1ccc(Cl)cc1)C(=O)O; Phe(4-NH2) = Nc1ccc(C[C@H](N)C(=O)O)cc1; d2Nal = N[C@H](Cc1ccc2ccccc2c1)C(=O)O; Lys(iPr) = CC(C)NCCCC[C@H](N)C(=O)O; d3Pal = N[C@H](Cc1cccnc1)C(=O)O
Further: unitless GR value; below 1 slowed growth and below 0 cell loss.

Regarding `N#Cc1c(N)nc(SCc2csc(-c3ccc(Cl)cc3)n2)c(C#N)c1-c1ccc(OCCO)cc1` [CAPADENOSON], the “Growth Rate” value was found to be 0.41 in data set [1] (setting [4]); 0.32 in data set [1] (setting [5]); 0.99 in data set [1] (setting [6]); 0.69 in data set [1] (setting [7]); 0.54 in data set [1] (setting [8]); 0.46 in data set [1] (setting [9]). Further, the “Growth Rate” value came out at 0.36 in data set [1] (setting [10]); 0.44 in data set [1] (setting [11]); 0.31 in data set [1] (setting [12]); 0.41 in data set [1] (setting [13]); 0.75 in data set [2] (setting [4]); 0.97 in data set [2] (setting [5]). Besides, the “Growth Rate” value in data set [2] (setting [6]) stood at 0.52; in data set [2] (setting [8]) it was 0.6; in data set [2] (setting [9]), 0.81; in data set [2] (setting [10]), 0.66; in data set [2] (setting [11]), 0.87; in data set [2] (setting [12]), 0.79. The “Growth Rate” value in data set [2] (setting [13]) is given as 0.83; in data set [3] (setting [4]), 0.09; in data set [3] (setting [5]), -0.41; in data set [3] (setting [6]) it was -0.5; in data set [3] (setting [7]), 0.85; in data set [3] (setting [8]) it was -0.47. The “Growth Rate” value in data set [3] (setting [9]) is 0.37; in data set [3] (setting [10]) it was -0.41; in data set [3] (setting [11]), 0.66; in data set [3] (setting [12]) it was -0.34; in data set [3] (setting [13]) it was 0.54.
For `Cc1ccc(OCC(O)C(C)NC(C)C)c2c1CCC2.Cl` (configuration not stated), the “Growth Rate” value in data set [1] (setting [5]) is reported as 0.95; in data set [1] (setting [7]), 0.7; in data set [1] (setting [8]) it was 0.49; in data set [1] (setting [9]), 0.63; in data set [1] (setting [10]), 0.16; in data set [1] (setting [11]), 0.65. Besides, the “Growth Rate” value is given as 0.03 in data set [1] (setting [12]); 0.62 in data set [1] (setting [13]); 0.09 in data set [2] (setting [4]); 0.28 in data set [2] (setting [5]); 1 in data set [2] (setting [6]); 0.87 in data set [2] (setting [7]). Also, the “Growth Rate” value in data set [2] (setting [8]) is 0.83; in data set [2] (setting [10]) it was 0.98; in data set [3] (setting [4]), 0.41; in data set [3] (setting [5]), 0.52; in data set [3] (setting [7]), 0.19; in data set [3] (setting [8]), 0.74. Also, the “Growth Rate” value in data set [3] (setting [9]) is on record as 0.32; in data set [3] (setting [10]), 0.5; in data set [3] (setting [11]), 0.54; in data set [3] (setting [12]), 0.38; in data set [3] (setting [13]), 0.51.
With `CN1CCN(c2nc3cc(C(F)(F)F)ccc3n3cccc23)CC1.O=C(O)/C=C\C(=O)O.O=C(O)/C=C\C(=O)O`, the “Growth Rate” value in data set [1] (setting [6]) is 0.89; in data set [1] (setting [7]), 0.57; in data set [1] (setting [9]), 0.87; in data set [1] (setting [11]) it was 0.7; in data set [1] (setting [12]), 0.8; in data set [2] (setting [5]) it was -1. Moreover, the “Growth Rate” value in data set [3] (setting [4]) stood at 0.87; in data set [3] (setting [6]) it was 0.24; in data set [3] (setting [8]), 0.72; in data set [3] (setting [10]), 0.98.
Regarding `CN1[C@@H]2CC[C@H]1C[C@@H](OC(=O)C(CO)c1ccccc1)C2` (some centres not stated) [ATROPINE], the “Growth Rate” value amounted to 0.9 in data set [1] (setting [6]); 0.19 in data set [1] (setting [7]); 0.68 in data set [1] (setting [8]); 0.53 in data set [1] (setting [9]); 0.6 in data set [1] (setting [10]); 0.65 in data set [1] (setting [11]). Also, the “Growth Rate” value is reported as 0.44 in data set [1] (setting [12]); 0.6 in data set [1] (setting [13]); 0.86 in data set [2] (setting [6]); 0.79 in data set [2] (setting [8]); 0.96 in data set [2] (setting [9]); 0.95 in data set [2] (setting [11]). Moreover, the “Growth Rate” value is listed as -0.04 in data set [3] (setting [4]), -0.32 in data set [3] (setting [5]) and 0.91 in data set [3] (setting [11]).
As for `Cc1noc(C)c1-c1cnc2c(-c3ccc(C(=O)O)cc3)cn([C@@H](C)c3ccccn3)c2c1` [PLX-51107], the “Growth Rate” value in data set [1] (setting [10]) is 0.88; in data set [1] (setting [12]), 0.6; in data set [2] (setting [4]), -0.01; in data set [2] (setting [5]), -0.06; in data set [2] (setting [6]) it was 0.72; in data set [2] (setting [7]) it was 0.86. Also, the “Growth Rate” value is reported as 0.5 in data set [2] (setting [8]); 0.73 in data set [2] (setting [10]); 0.96 in data set [2] (setting [11]); 0.96 in data set [2] (setting [12]); 0.17 in data set [3] (setting [5]); 0.13 in data set [3] (setting [6]). For the same compound, the results for the “Growth Rate” value in data set [3] (setting [7]) and in data set [3] (setting [9]) were 0.81 and 0.99, respectively.
With `COc1ccc2nc3ccc(OC)cc3c(SCCCN)c2c1.Cl`, the “Growth Rate” value in data set [1] (setting [4]) is on record as -0.05; in data set [1] (setting [5]), -0.25; in data set [1] (setting [6]), -0.57; in data set [1] (setting [7]), 0.26; in data set [1] (setting [8]), -0.16; in data set [1] (setting [9]), 0.33. The “Growth Rate” value is recorded as 0.19 in data set [1] (setting [10]); 0.22 in data set [1] (setting [11]); 0.28 in data set [1] (setting [12]); 0.19 in data set [1] (setting [13]); -0.75 in data set [2] (setting [4]); -0.3 in data set [2] (setting [5]). Besides, the “Growth Rate” value was found to be 0.7 in data set [2] (setting [8]); 0.2 in data set [2] (setting [9]); 0.19 in data set [2] (setting [10]); 0.16 in data set [2] (setting [11]); 0.14 in data set [2] (setting [12]); 0.21 in data set [2] (setting [13]). In addition, the “Growth Rate” value in data set [3] (setting [4]) is recorded as 0.15; in data set [3] (setting [5]) it was 0.39; in data set [3] (setting [6]), 0.94.
Turning to `CCCCCCCCc1ccc(CC[C@](N)(CO)COP(=O)(O)O)cc1` [FTY720-P], the “Growth Rate” value in data set [1] (setting [5]) is given as 0.4; in data set [1] (setting [6]), -0.47; in data set [1] (setting [7]) it was 0.66; in data set [1] (setting [8]), -0.14; in data set [1] (setting [9]) it was 0.46; in data set [1] (setting [10]), 0.01. Also, the “Growth Rate” value in data set [1] (setting [11]) is listed as 0.48; in data set [1] (setting [12]), 0.01; in data set [1] (setting [13]), 0.37; in data set [2] (setting [4]), 0.2; in data set [2] (setting [5]) it was -0.7; in data set [2] (setting [6]), 0.87. Moreover, the “Growth Rate” value in data set [2] (setting [7]) turned out to be 0.43; in data set [2] (setting [8]), 0.79; in data set [2] (setting [11]) it was 1; in data set [3] (setting [6]) it was 0.71; in data set [3] (setting [8]), 0.21; in data set [3] (setting [10]) it was 0.14. Moreover, the “Growth Rate” value turned out to be 0.85 in data set [3] (setting [11]), 0.09 in data set [3] (setting [12]) and 0.65 in data set [3] (setting [13]).
For `CC(=O)N[C@H](Cc1ccc2ccccc2c1)C(=O)N[C@H](Cc1ccc(Cl)cc1)C(=O)N[C@H](Cc1cccnc1)C(=O)N[C@@H](CO)C(=O)N[C@@H](Cc1ccc(NC(=O)[C@@H]2CC(=O)NC(=O)N2)cc1)C(=O)N[C@H](Cc1ccc(NC(N)=O)cc1)C(=O)N[C@@H](CC(C)C)C(=O)N[C@@H](CCCCNC(C)C)C(=O)N1CCC[C@H]1C(=O)N[C@H](C)C(N)=O` [DEGARELIX] (Ac-[d2Nal][dPhe(4-Cl)][d3Pal]S[Phe(4-NH2)](Dihydroorotyl(S))[dPhe(4-NHCONH2)]L[Lys(iPr)]P[dA]-NH2), the “Growth Rate” value in data set [1] (setting [4]) was -0.99; in data set [2] (setting [4]) it was -1; in data set [3] (setting [4]) it was -1; in data set [3] (setting [5]), -0.9.
